From US9139524B2, “Fluorinated bridged spiro[2.4]heptane derivatives as ALX receptor agonists” (Actelion Pharmaceuticals Ltd., priority 2012, dated 2015)

Tests used:
human ALX receptor = molecular target: T1, human ALX receptor (Homo sapiens, UniProt P25090); experiment: Intracellular calcium measurements (FLIPR), ALX receptor agonistic activity; assay type: cell-based; settings: HEK293-hALXR-Gα16 cells; values normalized to WKYMVm 10 nM; read-out: EC50 (agonistic activity with respect to the ALX receptor)
T1 construct: expressed in transfected cells; host or cells: HEK293 (HEK293-hALXR-Gα16)
T1 sequence (P25090 1-351): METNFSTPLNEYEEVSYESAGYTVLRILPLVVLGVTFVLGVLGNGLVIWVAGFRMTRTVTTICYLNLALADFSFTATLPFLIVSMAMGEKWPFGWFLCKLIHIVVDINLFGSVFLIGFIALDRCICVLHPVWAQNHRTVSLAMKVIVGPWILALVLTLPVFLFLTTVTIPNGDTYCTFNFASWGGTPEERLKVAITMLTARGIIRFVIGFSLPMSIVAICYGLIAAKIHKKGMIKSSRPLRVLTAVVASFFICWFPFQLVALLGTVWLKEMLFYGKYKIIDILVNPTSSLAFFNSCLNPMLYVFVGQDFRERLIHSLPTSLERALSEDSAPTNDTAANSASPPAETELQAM
Procedure: The ALX receptor agonistic activities of the compounds of formula (I) are determined in accordance with the following experimental method.
Cells expressing recombinant human ALX receptor and the G-protein Gα16 (HEK293-hALXR-Gα16) were grown to 80% confluency in Growing Medium (GM). Cells were detached from culture dishes with a cell dissociation buffer (Invitrogen, 13151-014), and collected by centrifugation at 1′000 rpm at rt for 5 min in Assay Buffer (AB) (equal parts of Hank's BSS (Gibco, 14065-049) and DMEM without Phenol Red (Gibco, 11880-028)). After 60 min incubation at 37° C. under 5% CO2 in AB supplemented with 1 μM Fluo-4 (AM) (Invitrogen, F14202) and 20 mM HEPES (Gibco, 15630-056), the cells were washed and resuspended in AB. They were then seeded onto 384-well FLIPR assay plates (Greiner, 781091) at 50′000 cells in 70 μl per well and sedimented by centrifugation at 1′000 rpm for 1 min. Stock solutions of test compounds were made up at a concentration of 10 mM in DMSO, and serially diluted in AB to concentrations required for activation dose response curves. WKYMVm (Phoenix Peptides) was used as a reference agonist. A FLIPR Tetra instrument (Molecular Devices) was operated according to the manufacturer's standard instructions, adding 4 μl of test compound dissolved at 10 mM in DMSO and diluted prior to the experiment in assay buffer to obtain the desired final concentration. Changes in fluorescence were monitored before and after the addition of test compounds at lex=488 nm and lem=540 nm. Emission peak values above base level after compounds addition were exported after base line subtraction. Values were normalized to high-level control (WKYMVm compound, 10 nM final concentration) after subtraction of the base line value (AB addition).

[1] = Determination of pharmacokinetic parameters in rats after single oral or intravenous administration; assay type: in vivo; settings: Wistar, plasma, rat, p.o. 1 mg/kg; for bioavailability: oral, calculated with a reference AUC after iv administration of solutions at 1 mg/kg, read-out: F (bioavailability); for AUC: po, read-out: AUC (area under curve after p.o. administration)
Procedure: The goal of the study was to evaluate the pharmacokinetics of compounds after a single oral administration or after an intravenous route in normal, conscious rats.
• Anaesthesia: Wistar rats were pretreated with 0.03 mg/kg Buprenorphine s.c. (an analgesic-stock solution at 0.03 mg/ml) and 30 minutes later they were anaesthetized with a mixture of 90 mg/kg Ketamine and 10 mg/kg Xylazine i.p. or under Isoflurane inhalation anesthesia. • Rat preparation: The top of the head and the neck were shaved and disinfected with Merfen and Betadine. • Surgery: While under (isoflurane) anaesthesia, an incision was made above 1.5 cm at the top of the head (between the ears) in order to fix the anchor button. A second incision was made above 1.5-2 cm on the neck (near the right clavicle). A catheter (ID/DI: 0.508 mm, Ulrich Swiss) was tunnelled with a trocar under the skin and an access port was fixed with 4-0 silk. The catheter was then filled with a heparinized saline solution (100 Ul/ml), clamped with a hemostat to prevent loss of saline, and the wound was closed with tissue adhesive (3M Vetbond). Next, the jugular vein was isolated and ligated cranially with 4-0 silk, a second ligature, placed caudal to the first ligature, was not tightened. Using iridectomy scissors, a V-shaped hole was cut in the vein, and the catheter was gently pushed into the vessel. All ligatures were then tied around the vessel and the catheters. A NaCl-heparin 100 Ul flush was made to test the blood flow. The wound was then closed with tissue adhesive and a suture. Flush again. • Post operative care: After the operation each animal was housed separately in a small box with food (directly on the floor of the box) and water ad libitum and access to solid drink. One to two days were allowed for recovery from surgery prior to the experiment. The day following the operation, animals were flushed with NaCl-heparin 100 Ul/mL and blood collection tubes were prepared with 10 μl EDTA added to each tube. • Experiment: Tested compounds were given at 1 mg/kg orally and intravenously. The oral formulation was as a solution in Gelatine (98% of a 7.5% Gelatine solution in Water and 2% DMSO) and the intravenous formulation was a solution in water with pH adjustment or in cyclodextrine (5% DMSO, 95% HPBCD30% (w/v)). After application of the test-compound (p.o. or i.v.), blood samples ([…]) were taken at different times. The samples were immediately put in ice before being centrifuged (4° C., 8 min, 16000 g). The plasma was then aspirated and placed into a 96 well plate. The plate was kept at −20° C. until analysis could be performed. • Plasma concentration of the compound was determined using a LC-MS/MS method.

Compound | EC50 (human ALX receptor) | bioavailability [1] | AUC [1]
O=C(N[C@H]1CCNC[C@H]1F)[C@H]1[C@H](C(=O)NCc2ccc(Br)cc2F)[C@@H]2CC[C@H]1C21CC1 (mixture of isomers) [Example 4, (1S,2R,3R,4R)—N^2-(4-Bromo-2-fluorobenzyl)-N^3-(cis-3-fluoropiperidin-4-yl)spiro[bicyclo[2.2.1]heptane-7,1′-cyclopropane]-2,3-dicarboxamide] | 12.7 nM | – | –
O=C(N[C@@H]1CNC[C@@H]1F)[C@H]1[C@H](C(=O)NCc2ccc(Br)cc2F)[C@@H]2CC[C@H]1C21CC1 (mixture of isomers) [Example 5, (1S,2R,3R,4R)—N^2-(4-Bromo-2-fluorobenzyl)-N^3-(cis-4-fluoropyrrolidin-3-yl)spiro[bicyclo[2.2.1]heptane-7,1′-cyclopropane]-2,3-dicarboxamide] | 300 nM | – | –
O=C(N[C@@H]1CNC[C@H]1F)[C@H]1[C@H](C(=O)NCc2ccc(Br)cc2F)[C@@H]2CC[C@H]1C21CC1 (mixture of isomers) [Example 6, (1S,2R,3R,4R)—N^2-(4-Bromo-2-fluorobenzyl)-N^3-(trans-4-fluoropyrrolidin-3-yl)spiro[bicyclo[2.2.1]heptane-7,1′-cyclopropane]-2,3-dicarboxamide] | 4.5 nM | – | –
O=C(N[C@@H]1CCNC[C@H]1F)[C@H]1[C@H](C(=O)NCc2ccc(Br)cc2F)[C@@H]2CC[C@H]1C21CC1 (single isomer, unassigned; diastereoisomer 1) [Example 2] | 1.9 nM | – | –
O=C(N[C@@H]1CCNC[C@H]1F)[C@H]1[C@H](C(=O)NCc2ccc(Br)cc2F)[C@@H]2CC[C@H]1C21CC1 (single isomer, unassigned; diastereoisomer 2) [Example 3] | 2 nM | 12% | 49.9 ng·h/mL
O=C(NC1CCNCC1(F)F)[C@H]1[C@H](C(=O)NCc2ccc(Br)cc2F)[C@@H]2CC[C@H]1C21CC1 (stereo partly drawn) [Example 1, (1S,2R,3R,4R)—N^2-(4-Bromo-2-fluorobenzyl)-N^3-(3,3-difluoropiperidin-4-yl)spiro[bicyclo[2.2.1]heptane-7,1′-cyclopropane]-2,3-dicarboxamide] | 41 nM | – | –
O=C(NC1CCNCC1)[C@H]1[C@H](C(=O)NCc2ccc(Br)cc2F)[C@@H]2CC[C@H]1C21CC1 [Reference Example 2, (1S,2R,3R,4R)—N^2-(4-Bromo-2-fluorobenzyl)-N^3-(piperidin-4-yl)spiro[bicyclo[2.2.1]heptane-7,1′-cyclopropane]-2,3-dicarboxamide, reference compound] | – | 0.3% | 6.34 ng·h/mL
